Results taken from PubChem BioAssay AID398.

Target: 11-beta-hydroxysteroid dehydrogenase 1 (Homo sapiens) (UniProt P28845)
Experiment: HSD11B1 binders by thermal stabilization, biophysical, DSF, SYPRO orange, purified protein (AID 398)
Conditions: protein 3 µM, buffer 10 mM HEPES, pH 7.5, NaCl 150 mM, stronger effect = higher value

Chain of 11-beta-hydroxysteroid dehydrogenase 1 (Homo sapiens) (P28845 whole entry, looked up): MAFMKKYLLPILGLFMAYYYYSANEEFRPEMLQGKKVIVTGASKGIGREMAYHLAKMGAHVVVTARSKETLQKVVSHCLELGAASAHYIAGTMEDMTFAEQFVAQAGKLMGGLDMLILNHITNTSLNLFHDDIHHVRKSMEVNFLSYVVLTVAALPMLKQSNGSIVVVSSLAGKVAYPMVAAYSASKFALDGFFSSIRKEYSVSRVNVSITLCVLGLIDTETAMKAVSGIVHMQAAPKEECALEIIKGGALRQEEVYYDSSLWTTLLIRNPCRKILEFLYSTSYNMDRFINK

| Tm shift (at 10 µM, NADP 100 µM) | Tm shift (at 40 µM) | Tm shift (measured here: second DSF experiment, at 40 µM, run 2, at 40 µM) | SMILES |
| --- | --- | --- | --- |
| 2.7 Celsius |  |  | CC(C)(COP(=O)(O)OP(=O)(O)OCC1OC(n2cnc3c(N)ncnc32)C(O)C1OP(=O)(O)O)C(O)C(=O)NCCC(=O)NCCSC(=O)CCC(=O)O (stereo unspecified) |
|  | 5.7 Celsius | 2.6 Celsius | NC(=O)c1ccc[n+](C2OC(COP(=O)(O)OP(=O)(O)OCC3OC(n4cnc5c(N)ncnc54)C(OP(=O)(O)O)C3O)C(O)C2O)c1 (stereo unspecified) |
| 3.6 Celsius |  |  | CC(C)(COP(=O)(O)OP(=O)(O)OCC1OC(n2cnc3c(N)ncnc32)C(O)C1OP(=O)(O)O)C(O)C(=O)NCCC(=O)NCCSC(=O)Cc1ccccc1 (stereo unspecified) |

Second part, the compound before the results:

| SMILES | Tm shift (at 10 µM, NADP 100 µM) | Tm shift (at 40 µM) | Tm shift (measured here: second DSF experiment, at 40 µM, run 2, at 40 µM) |
| --- | --- | --- | --- |
| COC(=O)[C@H](C)CO | 6.7 Celsius |  |  |
| C=CC1=C(C)/C(=C/c2[nH]c(Cc3[nH]c(/C=C4\NC(=O)C(C)=C4C=C)c(C)c3CCC(=O)O)c(CCC(=O)O)c2C)NC1=O | 3.9 Celsius |  |  |
